The test system of the experiment is full thickness chondrocytes. Nature of the experiment: In vitro-formed cartilage on membrane inserts: DNA, GAG and collagen contents. Format: cell-based, calves. As to the method:
Membrane inserts (Millicell-CM®, Millipore Corp., Bedford, Mass., USA) were coated with type II collagen (0.5 mg/ml in 0.1N acetic acid; Sigma Chemical Co., St. Louis, Mo., USA) and dried overnight. The membrane inserts were UV sterilized for 30 minutes and soaked in Ham's F12 for 30 minutes prior to cell culturing.
Cartilage was aseptically excised from the full thickness of metacarpal-phalangeal articular cartilage from 9 to 12 months old calves within 24 hours of death as previously described. For the experiment investigating the response of chondrocytes zonal subpopulations to inorganic polyphosphate, cartilage was excised as the superficial-mid zone (top 70%) and the deep-zone (bottom 30%). Chondrocytes were harvested from the tissue by sequential enzymatic digestion (0.5% protease (Sigma Chemical Co., St. Louis, Mo., USA) for 2 hours followed by 0.1% collagenase (Roche Diagnostics GmbH, Mannheim, Germany) overnight). The cells were then seeded on top of membrane inserts (1×10^6 cells per construct) in Ham's F-12 supplemented with 5% fetal bovine serum (FBS) (HyClone, Logan, Utah, USA) and incubated at 37° C. in an atmosphere characterized by 95% relative humidity and 5% CO2. On day 5, the serum concentration was changed to 20% and supplemented with ascorbic acid (100 μg/ml, Sigma Chemical Co., St. Louis, Mo., USA). At this time, cultures were incubated in the presence or absence of various concentrations of sodium phosphate glasses (inorganic polyphosphate; Sigma Chemical Co., St. Louis, Mo., USA) or sodium phosphate buffer. The concentrations of inorganic polyphosphate utilized for each experiment are calculated based on the phosphate content. Cultures were grown for up to 4 weeks following initiation of the inorganic polyphosphate treatment. […]
In vitro and ex vivo-cultured cartilage tissues were harvested and washed twice in PBS. […] The fluorescence was visualized with a Zeiss Axioplan epifluorescence microscope using a wide pass DAPI filter. […]
Cartilage tissues were digested with papain (Sigma Chemical Co., St. Louis, Mo., USA; 40 μg·ml^−1) in digestion buffer (20 mM ammonium acetate, 1 mM EDTA and 2 mM DTT) for 48 hours at 65° C. […] The DNA content was assessed using the Hoechst 33258 dye (Polysciences Inc., Washington, Pa., USA) binding assay and fluorometry (emission wavelength: 458 nm; excitation wavelength: 365 nm). […]
The proteoglycan and collagen contents of cartilage tissues were also measured from aliquots of the papain digest. The proteoglycan content was estimated by quantifying the amount of sulphated GAG using the dimethylmethylene blue dye (Polysciences Inc., Washington, Pa., USA) binding assay and quantifying the colour spectrophotometrically at 525 nm. […] The collagen content was estimated by quantifying the hydroxyproline. […]

Where [1] appears, read: 1 mM, 2 weeks in culture, normalized to DNA content, mean ± SEM.

The record followed here is patent US20130316015A1, “Methods for Repairing Cartilage” (MOUNT SINAI HOSPITAL, priority 2011, published 2013).

As for `O=P(O)(O)O` [Phosphate, sodium phosphate], the “DNA Content” value (1 mM, 2 weeks in culture, mean ± SEM) is 8.5 ± 0.92 µg. Moreover, under setting [1], the “Collagen Content” value was 105.3 ± 9.5 % of control and the “GAG Content” value is listed as 112.5 ± 14.8 % of control. Moreover, the “DNA, GAG and collagen contents compared to non-supplemented medium” value (concentrations equivalent to those used for polyphosphate, 2 weeks) is “did not significantly alter”.
